Measurements as given in US12018059B2, “Human amylin analog polypeptides and methods of use” (Intarcia Therapeutics, Inc., priority 2018, dated 2024).
Starred links: 1 amine or outer side, 2 acyl side, 3 side chain; linkers in the order of their positions; H or OH if unused. Positions of bridges follow the written chain, without caps; N, C: chain ends. Non-standard residues stand in square brackets, D forms with d. Residues, ends and D or L forms follow the SMILES beside them. Groups on a side chain read outwards from the residue. *: point of attachment. C20 diacid = O=C(O)CCCCCCCCCCCCCCCCCCC(=O)*; C18 diacid = O=C(O)CCCCCCCCCCCCCCCCC(=O)*; C16 diacid = O=C(O)CCCCCCCCCCCCCCC(=O)*; γGlu = O=C(O)[C@H](CCC(=O)[*:2])N[*:1]; Palmitoyl = CCCCCCCCCCCCCCCC(=O)*

Experiment: in vivo
Design: species or system Sprague-Dawley rats
Details: male, Sprague-Dawley, rat, iv, 0.033 mg/kg
In short: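 Male Sprague-Dawley rats, non-fasted (n=3), given peptide in saline as 1-h IV or SC infusion at 0.033 mg/kg, or SC bolus at 0.3 mg/kg; jugular blood to 48 h into K2EDTA plus protease inhibitors. Plasma extracted by precipitation or WCX solid-phase extraction, quantified by UPLC-MS/MS against standards in matching rat plasma.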
Work on `CC[C@H](C)[C@H](NC(=O)[C@@H]1CCCN1C(=O)CNC(=O)[C@H](Cc1ccccc1)NC(=O)[C@H](CC(N)=O)NC(=O)[C@H](CC(N)=O)NC(=O)[C@H](CO)NC(=O)[C@H](CO)NC(=O)[C@H](CCCCN)NC(=O)[C@H](Cc1c[nH]cn1)NC(=O)[C@H](CCCCNC(=O)CC[C@H](NC(=O)CCCCCCCCCCCCCCCCC(=O)O)C(=O)O)NC(=O)[C@H](CCC(=O)O)NC(=O)[C@H](CC(N)=O)NC(=O)[C@H](C)NC(=O)[C@H](CC(C)C)NC(=O)[C@H](CCCNC(=N)N)NC(=O)[C@H](CCC(N)=O)NC(=O)[C@@H](NC(=O)[C@H](C)NC(=O)[C@@H]1CSSC[C@H](NC(=O)[C@@H](N)CO)C(=O)N[C@@H](CC(N)=O)C(=O)N[C@@H]([C@@H](C)O)C(=O)N[C@@H](CO)C(=O)N[C@@H]([C@@H](C)O)C(=O)N1)[C@@H](C)O)C(=O)N[C@@H](CC(C)C)C(=O)N1CCC[C@H]1C(=O)N1CCC[C@H]1C(=O)N[C@H](C(=O)N[C@@H](CCCCN)C(=O)N[C@H](C(=O)NCC(=O)N[C@@H](CO)C(=O)N[C@@H](CCC(=O)O)C(=O)N[C@H](C(=O)N[C@@H](Cc1ccc(O)cc1)C(N)=O)[C@@H](C)O)C(C)C)[C@@H](C)O` [Compound A76] (H-SCNTSTCATQRLANEK([γGlu-C18 diacid])HKSSNNFGPILPPTKVGSETY-NH2; disulfide 2-7; N-terminus assumed) yielded a Vd of 0.176 L/kg, a clearance of 0.105 mL/min/kg and a half-life of 21.3 h.
Work on `CC[C@H](C)[C@H](NC(=O)[C@@H]1CCCN1C(=O)CNC(=O)[C@H](Cc1ccccc1)NC(=O)[C@H](CC(N)=O)NC(=O)[C@H](CC(N)=O)NC(=O)[C@H](CO)NC(=O)[C@H](CO)NC(=O)[C@H](CCCCN)NC(=O)[C@H](Cc1c[nH]cn1)NC(=O)[C@H](CCCCNC(=O)CC[C@H](NC(=O)CCCCCCCCCCCCCCCCCCC(=O)O)C(=O)O)NC(=O)[C@H](CCC(=O)O)NC(=O)[C@H](CC(N)=O)NC(=O)[C@H](C)NC(=O)[C@H](CC(C)C)NC(=O)[C@H](CCCNC(=N)N)NC(=O)[C@H](CCC(N)=O)NC(=O)[C@@H](NC(=O)[C@H](C)NC(=O)[C@@H]1CSSC[C@H](NC(=O)[C@@H](N)CO)C(=O)N[C@@H](CC(N)=O)C(=O)N[C@@H]([C@@H](C)O)C(=O)N[C@@H](CO)C(=O)N[C@@H]([C@@H](C)O)C(=O)N1)[C@@H](C)O)C(=O)N[C@@H](CC(C)C)C(=O)N1CCC[C@H]1C(=O)N1CCC[C@H]1C(=O)N[C@H](C(=O)N[C@@H](CCCCN)C(=O)N[C@H](C(=O)NCC(=O)N[C@@H](CO)C(=O)N[C@@H](CCC(=O)O)C(=O)N[C@H](C(=O)N[C@@H](Cc1ccc(O)cc1)C(N)=O)[C@@H](C)O)C(C)C)[C@@H](C)O` [Compound A73] (H-SCNTSTCATQRLANEK([γGlu-C20 diacid])HKSSNNFGPILPPTKVGSETY-NH2; disulfide 2-7; N-terminus assumed) yielded a Vd of 0.0924 L/kg, a clearance of 0.0449 mL/min/kg and a half-life of 26.6 h.

Same assay, conditions: rat, iv, 0.033 mg/kg
For `CCCCCCCCCCCCCCCC(=O)N[C@@H](CCC(=O)NCCCC[C@H](NC(=O)[C@H](CCCNC(=N)N)NC(=O)[C@H](CCC(N)=O)NC(=O)[C@@H](NC(=O)[C@H](C)NC(=O)[C@@H]1CSSC[C@H](NC(=O)[C@@H](N)CO)C(=O)N[C@@H](CC(N)=O)C(=O)N[C@@H]([C@@H](C)O)C(=O)N[C@@H](CO)C(=O)N[C@@H]([C@@H](C)O)C(=O)N1)[C@@H](C)O)C(=O)N[C@@H](C)C(=O)N[C@@H](CC(N)=O)C(=O)N[C@@H](CCC(=O)O)C(=O)N[C@@H](CC(C)C)C(=O)N[C@@H](Cc1c[nH]cn1)C(=O)N[C@@H](CCCCN)C(=O)N[C@@H](CO)C(=O)N[C@@H](CO)C(=O)N[C@@H](CC(N)=O)C(=O)N[C@@H](CC(N)=O)C(=O)N[C@@H](Cc1ccccc1)C(=O)NCC(=O)N1CCC[C@H]1C(=O)N[C@H](C(=O)N[C@@H](CC(C)C)C(=O)N1CCC[C@H]1C(=O)N1CCC[C@H]1C(=O)N[C@H](C(=O)N[C@@H](CCCCN)C(=O)N[C@H](C(=O)NCC(=O)N[C@@H](CO)C(=O)N[C@@H](CCC(=O)O)C(=O)N[C@H](C(=O)N[C@@H](Cc1ccc(O)cc1)C(N)=O)[C@@H](C)O)C(C)C)[C@@H](C)O)[C@@H](C)CC)C(=O)O` [Compound A121] (H-SCNTSTCATQRK([γGlu-Palmitoyl])ANELHKSSNNFGPILPPTKVGSETY-NH2; disulfide 2-7), the Vd was 0.239 L/kg, the clearance was 2.11 mL/min/kg and the half-life was 1.8 h.
Work on `CC[C@H](C)[C@H](NC(=O)[C@@H]1CCCN1C(=O)CNC(=O)[C@H](Cc1ccccc1)NC(=O)[C@H](CC(N)=O)NC(=O)[C@H](CC(N)=O)NC(=O)[C@H](CO)NC(=O)[C@H](CO)NC(=O)[C@H](CCCCN)NC(=O)[C@H](Cc1c[nH]cn1)NC(=O)[C@H](CC(C)C)NC(=O)[C@H](CCCCNC(=O)CC[C@H](NC(=O)CC[C@H](NC(=O)CCCCCCCCCCCCCCCCC(=O)O)C(=O)O)C(=O)O)NC(=O)[C@H](CC(N)=O)NC(=O)[C@H](C)NC(=O)[C@H](CC(C)C)NC(=O)[C@H](CCCNC(=N)N)NC(=O)[C@H](CCC(N)=O)NC(=O)[C@@H](NC(=O)[C@H](C)NC(=O)[C@@H]1CSSC[C@H](NC(=O)[C@@H](N)CO)C(=O)N[C@@H](CC(N)=O)C(=O)N[C@@H]([C@@H](C)O)C(=O)N[C@@H](CO)C(=O)N[C@@H]([C@@H](C)O)C(=O)N1)[C@@H](C)O)C(=O)N[C@@H](CC(C)C)C(=O)N1CCC[C@H]1C(=O)N1CCC[C@H]1C(=O)N[C@H](C(=O)N[C@@H](CCCCN)C(=O)N[C@H](C(=O)NCC(=O)N[C@@H](CO)C(=O)N[C@@H](CCC(=O)O)C(=O)N[C@H](C(=O)N[C@@H](Cc1ccc(O)cc1)C(N)=O)[C@@H](C)O)C(C)C)[C@@H](C)O` [Compound A87] (H-SCNTSTCATQRLANK([γGlu-γGlu-C18 diacid])LHKSSNNFGPILPPTKVGSETY-NH2; disulfide 2-7) yielded a Vd of 0.143 L/kg, a clearance of 0.108 mL/min/kg and a half-life of 17.7 h.
`CC[C@H](C)[C@H](NC(=O)[C@@H]1CCCN1C(=O)CNC(=O)[C@H](Cc1ccccc1)NC(=O)[C@H](CC(N)=O)NC(=O)[C@H](CC(N)=O)NC(=O)[C@H](CO)NC(=O)[C@H](CO)NC(=O)[C@H](CCCCN)NC(=O)[C@H](CCC(N)=O)NC(=O)[C@H](CC(C)C)NC(=O)[C@H](Cc1ccccc1)NC(=O)[C@H](CC(N)=O)NC(=O)[C@H](C)NC(=O)[C@H](CC(C)C)NC(=O)[C@H](CCCNC(=N)N)NC(=O)[C@H](CO)NC(=O)[C@@H](NC(=O)[C@H](C)NC(=O)[C@@H]1CSSC[C@H](NC(=O)[C@@H](N)CCCCNC(=O)CC[C@H](NC(=O)CCCCCCCCCCCCCCCCC(=O)O)C(=O)O)C(=O)N[C@@H](CC(N)=O)C(=O)N[C@@H]([C@@H](C)O)C(=O)N[C@@H](CO)C(=O)N[C@@H]([C@@H](C)O)C(=O)N1)[C@@H](C)O)C(=O)N[C@@H](CC(C)C)C(=O)N1CCC[C@H]1C(=O)N1CCC[C@H]1C(=O)N[C@H](C(=O)N[C@@H](CCCCN)C(=O)N[C@H](C(=O)NCC(=O)N[C@@H](CO)C(=O)N[C@@H](CCC(=O)O)C(=O)N[C@H](C(=O)N[C@@H](Cc1ccc(O)cc1)C(N)=O)[C@@H](C)O)C(C)C)[C@@H](C)O` [Compound A109] (H-K([γGlu-C18 diacid])CNTSTCATSRLANFLQKSSNNFGPILPPTKVGSETY-NH2; disulfide 2-7; N-terminus assumed) gave a Vd of 0.154 L/kg, a clearance of 0.15 mL/min/kg and a half-life of 16 h.
In the case of `CCCCCCCCCCCCCCCC(=O)NCC(=O)N[C@@H](CCC(=O)N[C@@H](CCC(=O)NCCCC[C@@H](NC(=O)[C@H](CCC(=O)O)NC(=O)[C@H](CC(N)=O)NC(=O)[C@H](C)NC(=O)[C@H](CC(C)C)NC(=O)[C@H](CCCNC(=N)N)NC(=O)[C@H](CCC(N)=O)NC(=O)[C@@H](NC(=O)[C@H](C)NC(=O)[C@@H]1CSSC[C@H](NC(=O)[C@@H](N)CO)C(=O)N[C@@H](CC(N)=O)C(=O)N[C@@H]([C@@H](C)O)C(=O)N[C@@H](CO)C(=O)N[C@@H]([C@@H](C)O)C(=O)N1)[C@@H](C)O)C(=O)N[C@@H](Cc1c[nH]cn1)C(=O)N[C@@H](CCCCN)C(=O)N[C@@H](CO)C(=O)N[C@@H](CO)C(=O)N[C@@H](CC(N)=O)C(=O)N[C@@H](CC(N)=O)C(=O)N[C@@H](Cc1ccccc1)C(=O)NCC(=O)N1CCC[C@H]1C(=O)N[C@H](C(=O)N[C@@H](CC(C)C)C(=O)N1CCC[C@H]1C(=O)N1CCC[C@H]1C(=O)N[C@H](C(=O)N[C@@H](CCCCN)C(=O)N[C@H](C(=O)NCC(=O)N[C@@H](CO)C(=O)N[C@@H](CCC(=O)O)C(=O)N[C@H](C(=O)N[C@@H](Cc1ccc(O)cc1)C(N)=O)[C@@H](C)O)C(C)C)[C@@H](C)O)[C@@H](C)CC)C(=O)O)C(=O)O` [Compound A39] (H-SCNTSTCATQRLANE[dK]([γGlu-γGlu-Gly-Palmitoyl])HKSSNNFGPILPPTKVGSETY-NH2; disulfide 2-7), the Vd is reported as 0.502 L/kg, the clearance is reported as 1.35 mL/min/kg and the half-life is reported as 4.85 h.
For `CC[C@H](C)[C@H](NC(=O)[C@@H]1CCCN1C(=O)CNC(=O)[C@H](Cc1ccccc1)NC(=O)[C@H](CC(N)=O)NC(=O)[C@H](CC(N)=O)NC(=O)[C@H](CO)NC(=O)[C@H](CO)NC(=O)[C@H](CCCCN)NC(=O)[C@H](Cc1c[nH]cn1)NC(=O)[C@H](CCCCNC(=O)CCCCCCCCCCCCCCC(=O)O)NC(=O)[C@H](CCC(=O)O)NC(=O)[C@H](CC(N)=O)NC(=O)[C@H](C)NC(=O)[C@H](CC(C)C)NC(=O)[C@H](CCCNC(=N)N)NC(=O)[C@H](CCC(N)=O)NC(=O)[C@@H](NC(=O)[C@H](C)NC(=O)[C@@H]1CSSC[C@H](NC(=O)[C@@H](N)CO)C(=O)N[C@@H](CC(N)=O)C(=O)N[C@@H]([C@@H](C)O)C(=O)N[C@@H](CO)C(=O)N[C@@H]([C@@H](C)O)C(=O)N1)[C@@H](C)O)C(=O)N[C@@H](CC(C)C)C(=O)N1CCC[C@H]1C(=O)N1CCC[C@H]1C(=O)N[C@H](C(=O)N[C@@H](CCCCN)C(=O)N[C@H](C(=O)NCC(=O)N[C@@H](CO)C(=O)N[C@@H](CCC(=O)O)C(=O)N[C@H](C(=O)N[C@@H](Cc1ccc(O)cc1)C(N)=O)[C@@H](C)O)C(C)C)[C@@H](C)O` [Compound A86] (H-SCNTSTCATQRLANEK(C16 diacid)HKSSNNFGPILPPTKVGSETY-NH2; disulfide 2-7), the Vd was 0.0936 L/kg, the clearance was 0.297 mL/min/kg and the half-life was 4.65 h.
